Source: patent publication EP4685149A1, “NOVEL COMPOUND AS ENDOTHELIAL TO MESENCHYMAL TRANSITION (ENDMT) INHIBITOR, AND PHARMACEUTICAL COMPOSITION COMPRISING SAME” (Korea Institute of Radiological & Medical Sciences, priority 2023, dated 2024)
Read-outs that look alike come from different tables or passages of the source.

Test system: human vascular endothelial cell lines
Assay: Inhibition of radiation-induced endothelial cell transition (EndMT), phalloidin immunofluorescence staining
Format: cell-based
Settings: Homo sapiens, Endothelial cell, light or radiation study, 10 uM test substance 1 hour before 10 Gy irradiation, 72 hours after irradiation, relative ratio with IR group (10 Gy alone) as 100%
Experimental: Test substances (Examples 1 to 45) were treated with a 10 mM DMSO solution at a ratio of 1 µL per 1 mL of cell culture medium to a final concentration of 10 uM, and the test substances were treated 1 hour before irradiation on human vascular endothelial cell lines (Promocell, Germany), and then, it was irradiated at an intensity of 10 Gy. 72 hours after irradiation, the human vascular endothelial cell lines were fixed with 10% formalin, and the experiment was conducted according to the manufacturer's method using phalloidin (Invitrogen, USA) to confirm the cytoskeleton filaments that increase during fibrosis. Phalloidin is a protein that binds to the actin of cytoskeleton filaments, and phalloidin conjugated with FITC fluorescent substance made the cytoskeleton filaments appear green when observed under a microscope.
After treatment with the test substance, the area, length and density of phalloidin were measured by using a confocal microscope, and the relative ratio was expressed with the irradiated group (IR group) that was irradiated with 10 Gy alone as 100% (Table 1).

Measured: activity at 10 µM

O[C@@H]1[C@H](O)CS[C@H]1n1cnc2c(N[C@@H]3CCc4ccccc43)ncnc21 [Example 45, (2R,3R,4S)-2-(6-(((R)-2,3-dihydro-1H-inden-1-yl)amino)-9H-purin-9-yl)tetrahydrothiophene-3,4-diol]
> 80%: read-out: Palloidin Area | read-out: Palloidin Intensity | read-out: Palloidin Length
